# Assay results: patent US20250073209A1, “COVALENT TARGETING OF RhoA FOR CANCER THERAPY” (The University of Hong Kong, priority 2023, published 2025)
# Columns and labels:
# [1] = test system: phosphorylated MLC (downstream effector of RhoA); experiment: Western blotting of phosphorylated MLC, serum starvation-restimulation; format: cell-based, human; settings: HCT116, serum starvation-restimulation
# Experimental: Anti-RhoA (#2117), anti-GAPDH (#2118), anti-phosphoMLC (#3671), anti-MLC (#3672), anti-FLAG (#8146), anti-GFP (#2956), and anti-GST (#2624) were purchased from Cell Signaling Technology. Cells were washed with PBS and then harvested using cell lysis buffer (1% Triton X100, 10 mM beta glycerol phosphate, 10 mM sodium pyrophosphate, 40 mM HEPES, 4 mM EDTA, pH7.4) with 4% protease/phosphatase inhibitor cocktail (Pierce). Protein samples were quantified using BCA assays (Pierce), normalized and then boiled with 4× Laemmli sampling buffer in 95° C. for 5 mins. Samples were resolved in 10% polyacrylamide gel (Biorad) and then transferred onto PVDF membrane (Biorad) and blocked with blocking buffer (5% bovine serum albumin (BSA) in Tris-buffered saline with 0.1% Tween 20 (TBST)) for 1 h. Membrane was washed in TBST, followed by incubation with corresponding primary antibodies (diluted 1:1000 in 5% BSA/milk in TBST with 1% NaN3) overnight at 4° C. After washing thrice with TBST, the membrane was incubated with HRP-conjugated secondary antibodies (#7074 or 7076) for one hour at room temperature. The membrane was then incubated with LumiGlo reagent (Cell Signaling Technology) and chemiluminescence was captured using a Chemidoc (Biorad).
# The effects of CL16 on RhoA downstream signals in CRCs with serum starvation-restimulation were examined.
# [2] = test system: normal colon fibroblast CCD-18Co cells; experiment: MTT assay on normal colon fibroblasts; format: cell-based, human; settings: 48 h, compared with CRCs
# Experimental: HCT116 cells was seeded at 2,500 cells/well; HT29, LOVO and SW620 cells were seeded at 4,000 cells/well; CCD-18Co cells were seeded at 10,000/well; and SW480 cells were seeded at 12,000 cells/well in 96 well plate in triplicates. Cells were treated with a concentration gradient of CL16 for 48 hours. Then, cells were incubated with 10% 3-(4,5-Dimethylthiazol-2-yl)-2,5-diphenyltetrazolium bromide (MTT) solution ([…]) in 37° C. for 4 hours. Cells were then lyzed in 10% SDS in […] HCl. Absorbance of individual well was measured at 570 nm. IC50 values were analyzed by nonlinear best-fit regression using Prism Graphpad 9.
# As discussed above, overexpression/hyperactivity of RhoA associated with poor prognosis and aggressive behaviors of CRCs (FIG. 8A). Thus, the anti-cancer and anti-metastatic properties of CL16 in CRCs were explored. First, it was confirmed that genetic knockdown of RhoA by siRNA slowed down colony formation and migration of CRCs by using staining (data not shown) and wound healing assay (FIG. 4A). MTT assay was used to determine cell viability of CRCs and normal colon fibroblast CCD-18Co cells treated with CL16 for 48 h (n=3 different biological replicates/group). A much lower expression level of RhoA in normal colon fibroblast CCD-18Co cells was also determined, as compared to CRCs, by western blotting (data not shown). […]
# [3] = test system: HT29 cells expressing RhoA WT; experiment: Wound healing assay on HT29 cells expressing RhoA WT; format: cell-based, human; settings: 48 h
# Experimental: (§1) For wound healing assay, HT29 cells were seeded in 90% confluency, a wound was scratched using a P-20 tip the next day. Cell debris was washed with PBS then aspirated. Then, complete DMEM medium with CL16 or Rhosin with corresponding concentration was added to the cells. Wound closure was recorded every 24 hours under light microscope with 10× objective and measurement of wound area was made by ImageJ.
# The effects of CL16 in HT29 cells expressing RhoA WT protein and HT29 cells with RhoA C16 Å knock-in by CRISPR-Cas9 were investigated, respectively, to validate the molecular mechanism of RhoA inhibition and anti-cancer properties from CL16. […] HT29 cells expressing RhoA WT or C16 Å protein were incubated with solvent vehicle, CL16 or Rhosin in complete medium for 24 h. The cells were then washed, lysed, subjected to rhotekin pull-down and immunoblotted. […] Wound healing assay on HT29 cells expressing RhoA WT or C16 Å protein were incubated with solvent vehicle, CL16 or Rhosin in complete medium for 48 h (FIGS. 19A and 19B).
# [4] = test system: HT29 cells with C16 Å knock-in; experiment: Wound healing assay on HT29 cells with RhoA C16A knock-in; format: cell-based, human; settings: 48 h
# Experimental: as §1
# HT29 cells with RhoA C16 Å knock-in were prepared by BrainVTA using the CRISPR-Cas9 technique. Briefly, HT29 cells were transfected with RhoA construct with mutated loci in CRISPR/Cas9 vector (U6-sa-sgRNA) using PEI. Cells were subsequently selected with 2 μg/mL puromycin and 800 μg/mL neomycin for 2 weeks. Monoclonal cells were then selected, propagated and subjected to Sanger sequencing to validate the homozygous C16 Å amino acid substitution ([…]) in RhoA gene.
# The effects of CL16 in HT29 cells expressing RhoA WT protein and HT29 cells with RhoA C16 Å knock-in by CRISPR-Cas9 were investigated, respectively, to validate the molecular mechanism of RhoA inhibition and anti-cancer properties from CL16. […] HT29 cells expressing RhoA WT or C16 Å protein were incubated with solvent vehicle, CL16 or Rhosin in complete medium for 24 h. The cells were then washed, lysed, subjected to rhotekin pull-down and immunoblotted. […]
# [5] = target: RhoA (Homo sapiens, UniProt P61586); experiment: RhoA-GTP rhotekin pull-down, serum starvation-re-stimulation; format: cell-based; design: endogenous in cells; host or cells: HCT116, HT29
# Experimental: RhoA Pull-Down Activation Assay Biochem Kit (#BK036) was purchased from Cytoskeleton. According to the manufacturer's protocol, total cell lysate (0.5 mg/mL; 300 μL) was added to 7.5 μL of Rhotekin-Rho Binding Domain beads in 0.6 mL tubes. The solution mixture was incubated at 4° C. on an end-to-end rotator for 1 hour. Beads were washed with 500 μL of washing buffer once, then centrifuged at 5000g for 3 min and the supernatant was discarded. RhoA-GTP was then eluted in 2× laemmli buffer and resolved in 10% SDS-PAGE.
# GTP loading onto RhoA is critical for the protein activation and mediating downstream signals. In view of the inhibitions of GDP-to-GTP exchange of RhoA by CL16 in vitro as discussed above, effects of CL16 on RhoA biology in colorectal cancer cells were examined. In the serum starvation-re-stimulation experiment, HCT116 cells were grown in serum-free medium with CL16, Rhosin or solvent control for 24 h, followed by stimulation with 10% FBS for 10 min. The cells were then lysed and the RhoA activity was assayed by the level of RhoA-GTP, which is the active form of RhoA. […] HT29 cells were incubated with solvent vehicle, CL16 or Rhosin in complete medium for 24 h. […] Confocal fluorescence images from HCT116 and HT29 cells expressing FRET RhoA-biosensor in the serum starvation-restimulation experiment were taken.
# Sequence of RhoA (P61586 whole entry, the tested form may be a part): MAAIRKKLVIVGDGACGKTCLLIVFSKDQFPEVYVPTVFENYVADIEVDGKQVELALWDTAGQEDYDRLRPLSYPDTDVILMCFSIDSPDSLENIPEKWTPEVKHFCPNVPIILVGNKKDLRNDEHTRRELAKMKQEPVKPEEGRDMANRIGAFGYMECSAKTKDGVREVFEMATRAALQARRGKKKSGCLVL
smiles,measurement,setting,value
O=C(CCl)N1N=C(c2cc3ccccc3o2)CC1c1ccco1 (stereo not drawn) [CL16],phosphorylation of MLC upon serum re-stimulation,[1],significantly eliminated the increases in phosphorylation of MLC
same,toxicity in normal cells (cell viability),[2],much less toxic
same,cell migration,[3],decrease in cell migration
same,cell migration,[4],no inhibitory effects
same,RhoA-GTP level compared with Rhosin,[5]; 10 μM CL16 vs 30 μM Rhosin,lower RhoA-GTP level
same,cellular RhoA-GTP level after serum stimulation vs solvent control,"[5]; HCT116, serum-free 24 h, 10% FBS 10 min",much lower cellular RhoA-GTP levels
